Measurements reported in patent US20210283087A1, “METHOD FOR TREATING AND RELIEVING MYOPIA” (China Medical University, priority 2014, published 2021).

Columns and labels:
Sclera fibroblast = assay: Gene expression by real-time PCR in LPS-treated primary scleral fibroblasts; assay type: cell-based, hamster
Protocol: (§1) R28 rat retinal epithelial cells were provided by Gail Seigel at the Ross Eye Institute (SUNY, Buffalo, N.Y., USA). The cells were cultured in Dulbecco's modified Eagle's medium (DMEM) with 10% fetal bovine serum (FBS) at 37° C. and 5% CO2, with medium replacement every 3 days to 4 days. Sclera were placed in a 60-mm culture dish in DMEM supplemented with 10% FBS to isolate primary scleral fibroblasts; those from fewer than three passages were used in experiments. […] Cell lysates were collected for quantitative (q)PCR to determine gene expression levels.
(§2) Total RNA was extracted using the RNeasy MiniKit (Qiagen, Valencia, Calif., USA), and 5 μg of RNA was reverse-transcribed to cDNA by using the Superscript First Strand Synthesis system (Invitrogen, Carlsbad, Calif., USA). Primers and probes used for qPCR were selected from the Universal Probes Library (Roche, West Sussex, UK). Transcript levels were normalized to those of glyceraldehyde 3-phosphate dehydrogenase in each sample.

Retinal cell (R28) = assay: Gene expression by real-time PCR in LPS-treated R28 retinal cells; assay type: cell-based, rat
Protocol: as §1, §2

[1] = test system: primary sclera fibroblast; assay: Immunofluorescence of MMP2 and COL1 in primary scleral fibroblasts; assay type: cell-based, rat; details: 100 μM atropine for 24 hours
Protocol: Primary sclera fibroblast cells plating on cover slides were washed with Tris-buffered saline (TBS), and subsequently fixed with 4% paraformaldehyde and washed twice with TBS before blocking with 1% BSA and 0.1% Triton X-100 for 1 hour. The cells were incubated with anti-MMP2 or anti-COL1 for 1 hour before being washed three times with TBS and subsequently incubated with an appropriate secondary antibody and a 4′,6-diamidino-2-phenylindole (DAPI) DNA stain. After being washed three times with TBS, the cells were imaged using fluorescence microscopy. All experiments were performed at least in triplicate.

[2] = sclera fibroblast, 100 ng/ml LPS and 100 μM atropine for 4 hours
[3] = R28, 100 ng/ml LPS and 100 μM atropine for 4 hours

## CN1[C@@H]2CC[C@H]1C[C@@H](OC(=O)C(CO)c1ccccc1)C2 (stereo partly shown) [Atropine, atropine]
Sclera fibroblast
  Chrm5 gene expression level: 0.98 ± 0.12
Sclera fibroblast; [2]
  Chrm 1 gene expression level: 0.73 ± 0.11
  Chrm 2 gene expression level: 1.24 ± 0.14
  Chrm 3 gene expression level: 0.70 ± 0.23
  Chrm 4 gene expression level: 1.11 ± 0.17
  Fos gene expression level: 0.93 ± 0.17
  IL1b gene expression level: 0.75 ± 0.13
  IL10 gene expression level: 1.05 ± 0.21
  IL-6 gene expression level: 0.79 ± 0.18
  MMP2 gene expression level: 0.74 ± 0.19
  NFkB gene expression level: 0.36 ± 0.3
  Tgfb1 gene expression level: 0.48 ± 0.24
  Tnfa gene expression level: 0.80 ± 0.2
Retinal cell (R28)
  Chrm5 gene expression level: 0.78 ± 0.24
Retinal cell (R28); [3]
  Chrm 1 gene expression level: 0.65 ± 0.16
  Chrm 2 gene expression level: 1.96 ± 0.2
  Chrm 3 gene expression level: 0.78 ± 0.11
  Chrm 4 gene expression level: 0.81 ± 0.23
  Fos gene expression level: 0.76 ± 0.17
  IL1b gene expression level: 0.17 ± 0.24
  IL10 gene expression level: 1.81 ± 0.15
  IL-6 gene expression level: 0.86 ± 0.19
  MMP2 gene expression level: 0.75 ± 0.16
  NFkB gene expression level: 0.85 ± 0.08
  Tgfb1 gene expression level: 0.82 ± 0.11
  Tnfa gene expression level: 0.84 ± 0.24
[1]
  COL1 expression: increased
  Expression levels of MMP2: inhibited
